Experimental data: the NIST ThermoML archive (doi:10.1021/acs.jced.8b00879)
± gives the expanded uncertainty stated by the source.

Test: mn = molality of the nth substance listed, in mol/kg
Conditions: 85 kPa, Liquid; for viscosity: Capillary tube (Ostwald / Ubbelohde) method; for speed of sound: Frequency=3 MHz, Single path-length method; for mass density: Vibrating tube method

C[N+](C)(C)CCO.NCC(=O)[O-] [2-hydroxy-N,N,N-trimethylethanaminium glycinate] + O
Conditions	mass density [kg/m3]	speed of sound [m/s]	viscosity [mPa·s]
288.15 K, m1 = 0.0111	999.43 ± 0.32	1468.1 ± 1.2	1.251 ± 0.12
288.15 K, m1 = 0.0214	999.73 ± 0.32	1469.5 ± 1.2	1.263 ± 0.12
288.15 K, m1 = 0.0318	1000.03 ± 0.32	1470.8 ± 1.2	1.275 ± 0.12
288.15 K, m1 = 0.0417	1000.3 ± 0.32	1472.1 ± 1.2	1.288 ± 0.12
288.15 K, m1 = 0.0534	1000.63 ± 0.32	1473.6 ± 1.2	1.302 ± 0.12
288.15 K, m1 = 0.0619	1000.85 ± 0.32	1474.7 ± 1.2	1.313 ± 0.12
298.15 K, m1 = 0.0111	997.68 ± 0.32	1498.2 ± 1.1	1 ± 0.12
298.15 K, m1 = 0.0214	997.97 ± 0.32	1499.4 ± 1.1	1.011 ± 0.12
298.15 K, m1 = 0.0318	998.25 ± 0.32	1500.6 ± 1.1	1.02 ± 0.12
298.15 K, m1 = 0.0417	998.57 ± 0.32	1501.7 ± 1.1	1.03 ± 0.12
298.15 K, m1 = 0.0534	998.8 ± 0.37	1503 ± 1.1	1.042 ± 0.12
298.15 K, m1 = 0.0619	997.38 ± 0.48	1504 ± 1.2	1.049 ± 0.12
308.15 K, m1 = 0.0111	994.36 ± 0.33	1521.1 ± 1.1	0.832 ± 0.12
308.15 K, m1 = 0.0214	994.66 ± 0.33	1522.2 ± 1.1	0.841 ± 0.12
308.15 K, m1 = 0.0318	994.96 ± 0.32	1523.2 ± 1.1	0.851 ± 0.12
308.15 K, m1 = 0.0417	995.24 ± 0.32	1524.1 ± 1.1	0.858 ± 0.12
308.15 K, m1 = 0.0534	995.56 ± 0.32	1525.2 ± 1.1	0.869 ± 0.12
308.15 K, m1 = 0.0619	995.79 ± 0.39	1526 ± 1.2	0.877 ± 0.12
318.15 K, m1 = 0.0111	990.55 ± 0.33	1536.9 ± 1.1	0.706 ± 0.12
318.15 K, m1 = 0.0214	990.85 ± 0.33	1537.7 ± 1.1	0.714 ± 0.12
318.15 K, m1 = 0.0318	991.15 ± 0.33	1538.6 ± 1.1	0.722 ± 0.12
318.15 K, m1 = 0.0417	991.43 ± 0.32	1539.4 ± 1.1	0.729 ± 0.12
318.15 K, m1 = 0.0534	991.75 ± 0.32	1540.5 ± 1.1	0.737 ± 0.12
318.15 K, m1 = 0.0619	991.99 ± 0.32	1541.2 ± 1.1	0.741 ± 0.12

C[N+](C)(C)CCO.O=C([O-])[C@@H]1CCCN1 [2-hydroxy-N,N,N-trimethylethanaminium L-prolinate] + O
Conditions	mass density [kg/m3]	speed of sound [m/s]	viscosity [mPa·s]
288.15 K, m1 = 0.0136	999.51 ± 0.33	1468.7 ± 1.2	1.325 ± 0.12
288.15 K, m1 = 0.0217	999.76 ± 0.33	1469.9 ± 1.2	1.337 ± 0.12
288.15 K, m1 = 0.0329	1000.09 ± 0.32	1471.5 ± 1.2	1.351 ± 0.12
288.15 K, m1 = 0.044	1000.42 ± 0.32	1473.1 ± 1.2	1.364 ± 0.12
288.15 K, m1 = 0.0525	1000.67 ± 0.32	1474.2 ± 1.2	1.375 ± 0.12
288.15 K, m1 = 0.0626	1000.96 ± 0.32	1475.6 ± 1.2	1.388 ± 0.12
298.15 K, m1 = 0.0136	997.47 ± 0.32	1499 ± 1.1	1.059 ± 0.12
298.15 K, m1 = 0.0217	997.71 ± 0.33	1500.2 ± 1.2	1.067 ± 0.12
298.15 K, m1 = 0.0329	998.05 ± 0.33	1501.8 ± 1.2	1.077 ± 0.12
298.15 K, m1 = 0.044	998.38 ± 0.32	1503.4 ± 1.1	1.089 ± 0.12
298.15 K, m1 = 0.0525	998.63 ± 0.33	1504.5 ± 1.2	1.096 ± 0.12
298.15 K, m1 = 0.0626	998.92 ± 0.3	1505.9 ± 1.1	1.104 ± 0.12
308.15 K, m1 = 0.0136	994.45 ± 0.32	1522.1 ± 1.1	0.879 ± 0.12
308.15 K, m1 = 0.0217	994.7 ± 0.33	1523.3 ± 1.2	0.884 ± 0.12
308.15 K, m1 = 0.0329	995.04 ± 0.33	1524.8 ± 1.2	0.894 ± 0.12
308.15 K, m1 = 0.044	995.37 ± 0.32	1526.4 ± 1.1	0.902 ± 0.12
308.15 K, m1 = 0.0525	995.63 ± 0.33	1527.5 ± 1.2	0.908 ± 0.12
308.15 K, m1 = 0.0626	995.92 ± 0.3	1528.9 ± 1.1	0.916 ± 0.12
318.15 K, m1 = 0.0136	990.64 ± 0.33	1538 ± 1.2	0.74 ± 0.12
318.15 K, m1 = 0.0217	990.9 ± 0.33	1539.1 ± 1.2	0.746 ± 0.12
318.15 K, m1 = 0.0329	991.24 ± 0.33	1540.7 ± 1.2	0.753 ± 0.12
318.15 K, m1 = 0.044	991.58 ± 0.33	1542.2 ± 1.2	0.76 ± 0.12
318.15 K, m1 = 0.0525	991.84 ± 0.33	1543.3 ± 1.1	0.764 ± 0.12
318.15 K, m1 = 0.0626	992.13 ± 0.33	1544.6 ± 1.1	0.772 ± 0.12
